Consider five molecules from patent US20220056075A1, “METHOD FOR TREATING OPIOID USE DISORDER” (THE ADMINISTRATORS OF THE TULANE EDUCATIONAL FUND, priority 2019, published 2022).

Where “and” joins values, the source holds several entries; their conditions need not be identical. Equal values may be shown once. Entries after “also recorded” stand apart in the source; their conditions may differ. Some results are limits rather than exact numbers.

One series has as its system DBA mice. Description: Hot plate antinociception test. The format is in vivo, mouse. As to conditions: 40 mg/Kg, s.c.
Series [1] concerns rats trained to discriminate morphine from vehicle. Briefly: Drug discrimination (DD), morphine-trained rats. To be noted: for Maximum % drug-appropriate responding / response rates for food during test sessions: i.v.; for Maximum % drug-appropriate responding: male rats; for Response rate impairment %: highest dose tested (5.6 mg/Kg), percent of vehicle responding; for response rates for food during test sessions: compared to vehicle. On the procedure: Drug Discrimination (DD): Rats were food deprived to approximately 85% of the weight of free feeding cohorts to establish operant responding for 45 mg food pellets (Bioserve, Frenchtown, N.J.) in standard operant chambers (MED Associates, St. Albans, Vt.). Rats were fed 10-20 g of standard food after daily DD sessions, and ˜3× the daily amount on weekends to maintain appropriate weight. DD consisted of 3 phases (Krivsky et al., 2006). In phase 1, rats were trained to lever press for food at a fixed ratio (FR) level 1 (i.e., 1 lever press=1 food pellet) using 2 levers with stimulus lights located above each lever and a food hopper between the levers during 120 min sessions. Responding on either lever extinguished the light and delivered a food pellet. […] Once >20 pellets were earned at FR9, sessions were shortened to 20 min and response requirements were set at FR10 and the left or right lever reinforced responding on alternate days. Once >20 pellets were earned on each lever at FR10, rats started phase 2 of DD training.
Only responses on the correct lever were reinforced and responses on the incorrect lever reset the response requirement on the correct lever. Criteria to move to phase 3 were as follows: >20 pellets per session, >90% injection appropriate lever responding, and <9 responses on the incorrect lever before the first food pellet reward.
Two paradigms were utilized to generate substitution curves: cumulative within-session and bolus between-session injections.
During substitution tests, both levers actively delivered food at an FR10 schedule. […] Doses were increased in ¼ log increments, with injections every 20 min followed 15 minutes later by DD sessions lasting 5 min each. […] The advantage of this procedure was that an entire dose-response was generated in one session.
Statistics: PRISM software (GraphPad, San Diego, Calif.) was used for one-way analysis of variance (ANOVA) with Newman-Keuls post-hoc comparisons to compare CPP groups, locomotor effects, hot plate, and DD response rates. Locomotor data recorded during the conditioning sessions were analyzed by 2-way ANOVA (session x drug) and data from the first session were subtracted from the final session to assess locomotor enhancement. Experimenters were blinded to treatment groups.

The test system of series [2] is Male Sprague Dawley rats. Description: Locomotor sensitization during CPP conditioning sessions. The format is in vivo, rat. To be noted: 1.8, 3.2, 5.6 mg/Kg i.v., 5 daily injections, compared to vehicle. On the procedure:
(§1) Conditioned Place Preference (CPP) and locomotor activity: Standard CPP chambers (TSE; Chesterfield, Mo.) were used to measure baseline activity and conditioning trials. Baseline activity was measured over 2 days with 4 trials per day (2 in the AM, and 2 in the PM) lasting 20 min each. […] Conditioning trials were conducted for 5 days and tested in an unbiased manner such that drug/environment pairings were counterbalanced for time of drug injection (AM or PM) and compartment (preferred or non-preferred) based on baseline activity. […] This indicates a lack of carry-over effects of drug between sessions. One day following the last conditioning trial, a 20 min test trial was conducted in the same manner as baseline trials in which rats were free to explore both compartments. Change in time spent exploring the drug-paired compartment (test-baseline) was used to indicate preference (or aversion) to the compartment. Approximately 20 min following the final session, rats were perfused and brain samples were taken for immunohistochemical analysis (below). Locomotor activity was assessed by infrared light beams located in the conditioning compartments and the start box. […] Data were recorded in meters and an assessment of locomotor sensitization was made by subtracting the first session from the final session.
(§2) Experimenters were blinded to treatment groups.

The test system of another series is male and female mice. The format is in vivo, mouse. As to conditions: s.c., compared to vehicle.
Another series concerns rats. To be noted: cited from earlier work.
In series [3] the test system is dopamine (DA) neurons in the posterior VTA. Briefly: VTA dopamine cell soma morphology (TH staining, STEREO INVESTIGATOR). The format is in vivo, rat. To be noted: 5 consecutive daily i.v. injections; morphine effect at 5.6 mg/Kg. The protocol: DA morphology analysis: Fifteen min following the final CPP test session, rats were anesthetized with a mixture of ketamine/xylazine (85/10 mg/Kg, i.p., respectively) and perfused intracardially with 200 mL of 0.1 mol/L phosphate buffered saline (PBS) immediately followed by 300 mL of 4% paraformaldehyde in 0.1 mol/L PBS (pH=7.4). Brains were removed and post-fixed at 4° C. in the same fixative for 18 h. After post-fixation, brains were incubated in 30% sucrose at 4° C. for 2 days and sectioned coronally on a cryostat at 40 μm at the level of the posterior VTA (Spiga et al., 2003; Chu et al., 2008). After 2 consecutive washes in PBS, sections were blocked with 5% normal donkey serum (NDS) for 1 h, and incubated with the primary antibody anti-tyrosine-hydroxylase (anti-TH, 1: 3000 Cell Signaling Technology, Danvers, Mass.) overnight at 4° C. Slices were washed twice in PBS, re-blocked for 1 h, and incubated with the secondary antibody ALEXA594 (Life Technologies, Carlsbad, Calif.), for 2 h. Sections were washed, mounted on slides with PROLONG GOLD (Life Technologies), and stored at 4° C. Posterior VTA sections were verified according to the atlas of Paxinos and Watson (2007). Images of the parabrachial pigmented area (PBP) and the paranigral area (PN) subregions of the posterior VTA were captured in z-stacks (1 μm) with at least 5 tissue slices per rat and 5-6 rats per drug group. STEREO INVESTIGATOR software (MBF Bioscience; Williston, Va.) was used to quantify soma size using the optical fractionator probe to survey a sample of neurons in each z-stack while the nucleator probe was used to measure the cross-sectional area and volume of each cell soma. The optical fractionator probe was used to quantify the number of cells in a particular section of tissue through systematic random sampling. Between 12 and 16 regions were surveyed per z-stack. While the optical fractionator probe utilized stereological techniques to select a random sample to be analyzed, the nucleator probe measured the cross-sectional area of each neuron. Therefore, the simultaneous use of these probes systematically assessed neurons in the PBP and PN regions of the VTA in each subject, and provided morphological data for these cells including surface area (μm^2) and volume (μm^3). Cell somas were eligible to be quantified if they were located within the counting frame and/or if the soma touched either of the nucleator frame's green borders. Neurons were ineligible if located outside the counting frame and/or if their soma touched the frame's red borders. After determining this optimum depth, the center of the soma was located and analyzed by the nucleator probe. To eliminate bias associated with tissue orientation, nucleator rays were randomly arranged between quantifications. […]

The subject of another series is male and female rats. Briefly: Naloxone-induced conditioned place aversion (CPA). The class given is in vivo, rat. As to conditions: i.v. morphine 5.6 mg/Kg or ZH853 4.2 mg/Kg, naloxone 1 mg/Kg s.c. 4 h later. The protocol: Four hours later they received s.c. naloxone (1 mg/Kg) and were confined to one side of the apparatus (counterbalanced) for 20 min. The following day the animals received vehicle-then-saline rather than drug-then-naloxone. This cycle (drug+4 h+nlx+next day vehicle+saline) was repeated once, and the next day the animals had access to the entire apparatus (Post-cond).
To assess whether ZH853 induces the negative affect typical of opioid withdrawal, the conditioned place aversion (CPA) test was conducted.

For the next series, the system named is Male Sprague-Dawley rats. Description: Reinstatement of morphine-induced conditioned place preference. To be noted: priming dose 1.8 mg/Kg, 20 min, vs baseline. On the procedure: Male Sprague-Dawley rats were exposed to a conditioned place preference (CPP) apparatus for two sessions to determine baseline (BL) preference for 2 distinct, unbiased chambers. […] The animals then underwent extinction procedures consisting of confinement for 45 min in the previously drug- and vehicle-paired chambers for 7 days.

The test system of series [4] is Male Sprague Dawley rats. Description: Conditioned place preference (CPP), 5-day procedure. To be noted: 5 days of conditioning. The format is in vivo, rat. On the procedure: as §1, §2
Series [5] relates to male rats. Briefly: Forced abstinence and relapse test (oxycodone seeking). The format is in vivo, rat. To be noted: 8th day of forced abstinence; i.v. pretreatment ZH853 1.8 or 3.2 mg/kg, oxycodone 0.32 mg/kg. On the procedure:
(§3) Self-administration (SA): Self-administration tests were conducted in standard operant chambers (MED Associates, St. Albans, Vt.). Infusions were delivered through TYGON tubing threaded through metal spring leashes and attached to exterior infusion pumps. 3-hour sessions were conducted Monday-Friday during the dark cycle. At the start of each session, the house light was illuminated, and levers extended. […] For the first 5 sessions, rats were trained to lever press for oxycodone (0.1 mg/kg/infusion) on a FR1 reinforcement schedule. For the following 10 sessions, the dose of oxycodone was decreased to 0.05 mg/kg/infusion to increase lever responding.
Forced abstinence and relapse test: Following acquisition of oxycodone self-administration, rats underwent 7 days of forced abstinence from oxycodone and exposure to the testing environment in their home cages. Animals were then split into treatment groups counterbalanced for total oxycodone intake, average number of infusions obtained in the last 3 sessions, and average number of active lever pressings over the last 3 sessions. On the 8th day of forced abstinence, rats were given an intravenous injection of 1.8 mg/kg ZH853, 3.2 mg/kg ZH853, or vehicle. The relapse test began 30 minutes later.

The test system of series [6] is male rats. Description: Maintenance of established oxycodone self-administration (substitution). The class given is in vivo, rat. As to conditions: after acquisition of oxycodone SA; drug continued or substituted, i.v. infusions. On the procedure: as §3
Maintenance of established oxycodone self-administration: Following acquisition of oxycodone self-administration, animals were split into treatment groups counterbalanced for total oxycodone intake, average number of infusions obtained in the last 3 sessions, and average number of active lever pressings over the last 3 sessions. Ten maintenance sessions were conducted in the same way as oxycodone acquisition except rats were either maintained on 0.1 mg/kg/infusion oxycodone or had drug availability substituted with equi-antinociceptive 1 mg/kg/infusion ZH853 or vehicle.

For series [7] the following is noted: cumulative doses producing maximum antinociceptive effects; cited from earlier work.

On to `COC(=O)/C=C/C(=O)N[C@@H]1CC[C@@]2(O)[C@H]3Cc4ccc(O)c5c4[C@@]2(CCN3CC2CC2)[C@H]1O5` [βFNA, beta-funaltrexamine], for which, in the series with DBA mice, the antinociceptive properties alone entry is listed as “no antinociceptive properties alone”.
For the molecule `CN1CC[C@]23c4c5ccc(O)c4O[C@H]2[C@@H](O)C=C[C@H]3[C@H]1C5.O=S(=O)(O)O` [Morphine, Morphine sulfate, reference compound], the “doses disrupting response rates during test sessions” value is ≥ 3.2 mg/kg in [1] (bolus injections) and ≥ 5.6 mg/kg in [1] (cumulative injections). Besides, the “Maximum % drug-appropriate responding” value in [1] (bolus injections made between sessions) and in series [1] (cumulative injections within a single session) was 100% each time. Besides, the “Response rate impairment %” value in series [1] (bolus injections, sulfate) was 77% and 77.1%; in [1] (cumulative injections, sulfate), 55% and 54.5%. In series [1], the “response rates for food during test sessions” value is given as “reduced response rates compared to vehicle”. Further, the “response rates for food during training” value in series [1] (training doses 3.2 mg/Kg s.c. and 1.8 mg/Kg i.v., compared to saline) was “modestly impaired”. In addition, in [1] (training, after approximately 20 sessions), the appropriate drug-lever responding is reported as > 90%. Further, the “locomotor sensitization (LS), day 5 minus day 1” value in the series on Male Sprague Dawley rats [2] is on record as “produced LS at all doses tested”. In addition, in the series with male and female mice, the tail flick antinociception result is “increased the latency to tail flick”. The “hourly SA intake” value in the series on rats (12-hour SA sessions, 1 mg/Kg/infusion) was ~3.5 mg/kg/h. The “surface area of TH-positive somas in pVTA” value in series [3] is “reduced”. The “volume of TH-positive somas in pVTA” value in [3] was “reduced”. The naloxone-induced place aversion result with male and female rats was “produces aversive behavior”. Also, in the series on Male Sprague-Dawley rats, the “reinstatement of morphine CPP after extinction” value was “showed reinstatement of CPP”. In addition, the “conditioned place preference (CPP)” value in the series with Male Sprague Dawley rats [4] (3.2 mg/Kg i.v.) is listed as “produced conditioned place preference (CPP) effects”; with Male Sprague Dawley rats [4] (1.8 and 5.6 mg/Kg i.v.), “did not produce significant CPP”.
As for `NC(=O)[C@@H]1CCC(=O)NCCCC[C@@H](NC(=O)[C@@H](N)Cc2ccc(O)cc2)C(=O)N[C@@H](Cc2c[nH]c3ccccc23)C(=O)N[C@@H](Cc2ccccc2)C(=O)N1` [ZH850, Tyr-c[D-Lys-Trp-Phe-Glu]-NH2], the “Response rate impairment %” value in series [1] (bolus injections) is 30% and 30.4%; in [1] (cumulative injections), −0.3%. The “response rates for food during test sessions” value in [1] is “impaired response rates only after bolus, but not after cumulative injections; also recorded: reduced response rates compared to vehicle”.
Turning to `COc1ccc2c3c1O[C@H]1C(=O)CC[C@@]4(O)[C@@H](C2)N(C)CC[C@]314` [oxycodone, reference compound], in the series on male rats [5], the “oxycodone-seeking (SA behavior, active lever responding) in 1-hour relapse test” value was “associated with a relapse to SA behavior”. In the series on male rats [6], the “self-administration behavior during maintenance sessions” value is given as “the drug-seeking behavior was maintained”.
For `NC(=O)[C@@H]1CCCCNC(=O)CC[C@@H](NC(=O)[C@@H](N)Cc2ccc(O)cc2)C(=O)N[C@@H](Cc2ccccc2)C(=O)N[C@@H](Cc2ccccc2)C(=O)N1` [ZH831, Tyr-c[D-Glu-Phe-Phe-Lys]-NH2], the “Response rate impairment %” value in [1] (bolus injections) was 21% and 21.1%; in [1] (cumulative injections) it was 31% and 30.6%. Moreover, the “response rates for food during test sessions” value in series [1] is listed as “not impaired”. Besides, in [7], the “motor impairment on the Rotarod” value was “lack of motor impairment”. The “reinforcing effects in SA/CPP procedures” value in the series on rats (rat, in vivo) is on record as “did not produce reinforcing effects in SA/CPP procedures”.
